# From PubChem BioAssay AID1963962 (Molecular Pharmacology Branch, DTP, NCI, 2024)
# System: 967376-340-R-J2-PDC multicell spheroid viability
# Experiment: Anticancer human tumor 967376-340-R-J2-PDC patient-derived colon adenocarcinoma cell line growth inhibition [PI3K]
# Conditions: for IC50: curve of first compound; for viability, T/C: stronger effect = lower value
# Outline: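 Tumor cells grown as multi-cell spheroids with HUVEC endothelial cells and MSC fibroblast-like stroma were treated with targeted agents combined with inavolisib, alpelisib, duvelisib or copanlisib. Doses fell in half-log steps from near clinical Cmax, else from 10 microM. Viability was measured.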
# 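Also: spheroids exposed to agents for 7 days before read-out.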
# 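For viability, T/C in this document: luminescence used as surrogate of cell viability.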
smiles,measurement,setting,value
Cn1ncnc1[C@H]1c2n[nH]c(=O)c3cc(F)cc(c23)N[C@@H]1c1ccc(F)cc1 + CC(Nc1ncnc2nc[nH]c12)c1cc2cccc(Cl)c2c(=O)n1-c1ccccc1,IC50,second compound 0.0316 µM,> 100 nM
same,IC50,second compound 0.1 µM,> 100 nM
same,IC50,second compound 0.316 µM,> 100 nM
same,IC50,second compound 1 µM,> 100 nM
same,IC50,second compound 3.16 µM,> 100 nM
same,IC50,second compound 10 µM,> 100 nM
same,"viability, T/C","second compound 0.0316 µM, first compound 0.000316 µM",111%
same,"viability, T/C","second compound 0.0316 µM, first compound 0.001 µM",114%
same,"viability, T/C","second compound 0.0316 µM, first compound 0.00316 µM",90%
same,"viability, T/C","second compound 0.0316 µM, first compound 0.01 µM",107%
same,"viability, T/C","second compound 0.0316 µM, first compound 0.0316 µM",84.7%
same,"viability, T/C","second compound 0.0316 µM, first compound 0.1 µM",86.7%
same,"viability, T/C","second compound 0.1 µM, first compound 0.000316 µM",103%
same,"viability, T/C","second compound 0.1 µM, first compound 0.001 µM",94.2%
same,"viability, T/C","second compound 0.1 µM, first compound 0.00316 µM",102%
same,"viability, T/C","second compound 0.1 µM, first compound 0.01 µM",109%
same,"viability, T/C","second compound 0.1 µM, first compound 0.0316 µM",93.4%
same,"viability, T/C","second compound 0.1 µM, first compound 0.1 µM",89.5%
same,"viability, T/C","second compound 0.316 µM, first compound 0.000316 µM",83.5%
same,"viability, T/C","second compound 0.316 µM, first compound 0.001 µM",96.5%
same,"viability, T/C","second compound 0.316 µM, first compound 0.00316 µM",78.6%
same,"viability, T/C","second compound 0.316 µM, first compound 0.01 µM",83.4%
same,"viability, T/C","second compound 0.316 µM, first compound 0.0316 µM",102%
same,"viability, T/C","second compound 0.316 µM, first compound 0.1 µM",79.2%
same,"viability, T/C","second compound 1 µM, first compound 0.000316 µM",122%
same,"viability, T/C","second compound 1 µM, first compound 0.001 µM",84.7%
same,"viability, T/C","second compound 1 µM, first compound 0.00316 µM",87.2%
same,"viability, T/C","second compound 1 µM, first compound 0.01 µM",91.7%
same,"viability, T/C","second compound 1 µM, first compound 0.0316 µM",108%
same,"viability, T/C","second compound 1 µM, first compound 0.1 µM",104%
same,"viability, T/C","second compound 3.16 µM, first compound 0.000316 µM",73.7%
same,"viability, T/C","second compound 3.16 µM, first compound 0.001 µM",73.8%
same,"viability, T/C","second compound 3.16 µM, first compound 0.00316 µM",89.6%
same,"viability, T/C","second compound 3.16 µM, first compound 0.01 µM",71.1%
same,"viability, T/C","second compound 3.16 µM, first compound 0.0316 µM",83.3%
same,"viability, T/C","second compound 3.16 µM, first compound 0.1 µM",87.8%
same,"viability, T/C","second compound 10 µM, first compound 0.000316 µM",89.5%
same,"viability, T/C","second compound 10 µM, first compound 0.001 µM",102%
same,"viability, T/C","second compound 10 µM, first compound 0.00316 µM",81.5%
same,"viability, T/C","second compound 10 µM, first compound 0.01 µM",76.4%
same,"viability, T/C","second compound 10 µM, first compound 0.0316 µM",78%
same,"viability, T/C","second compound 10 µM, first compound 0.1 µM",73.5%
